Measured values reported in patent US20240000745A1, “COMPOSITIONS AND METHODS USING A COMBINATION OF OLEUROPEIN AND QUERCETIN FOR CELLULAR ENERGY” (SOCIETE DES PRODUITS NESTLE S.A., priority 2020, published 2024).

Tested on: HeLa cells
Test: Mitochondrial calcium elevation in histamine-stimulated HeLa cells (mitochondrially targeted aequorin luminescence)
Type: cell-based
Procedure: To test the effect of oleuropein (or oleuropein aglycone), quercetin and their combination in living cells, the inventors measured mitochondrial calcium elevation in HeLa cells. HeLa cells were purchased from ATCC. HeLa cells were seeded in 96-well plates at a density of 50000 cells per well in minimal essential medium (DMEM, Gibco), high glucose, +10% fetal calf serum.
Mitochondrial calcium measurements were carried out using Hela cells infected with the adenovirus (from Sirion biotech) expressing the mitochondrially targeted calcium sensor mitochondrial mutated aequorin (Montero et al., 2004). For aequorin reconstitution, 24 hours after infection, cells were incubated for 2 h at room temperature (22±° C.) in standard medium (145 mM NaCl, 5 mM KCl, 1 mM MgCl2, 1 mM CaCl2, 10 mM glucose and 10 mM Hepes, pH 7.4) with 1 μM wild-type coelenterazine.
For treatment, compounds were directly added to the cell culture or myotubes cultures 2 hours before measurements. Luminescence was measured at the FLIPR Tetra Aequorin (Molecular Devices). […] Calibration of the luminescence data into calcium concentration was carried out using an algorithm, as described previously (Alvarez & Montero, 2002). Custom module analysis based on Excel (Microsoft) and GhaphPad Prism 7.02 (GraphPad) software was used for quantification.

Question: How did the “synergism with quercetin to activate mitochondria via mitochondrial Ca2+ rise (measured effect of the combination vs. theoretical sum of the single effects)” value (3 μM + 3 μM quercetin, integrated mitochondrial calcium rise evoked by 100 μM histamine, HeLa cells, compounds added 2 hours before measurement, P<0.05) turn out when `C/C=C1/C(O)OC=C(C(=O)OC)[C@H]1CC(=O)OCCc1ccc(O)c(O)c1` (mixture of isomers) [oleuropein aglycone] was run?
Answer: synergizes with quercetin

Question: And the “level of synergism in combination with quercetin, compared between oleuropein and oleuropein aglycone” value (synergisms calculated as in FIG. 1 and FIG. 2, n=6, NS at P<0.05 (Student's t-test))?
Answer: same level of synergism
